≈ marks a conversion by molar mass, not a printed value.
Columns and labels:
CNE cell line = assay: solid tumor cell growth inhibition, MTT; type: cell-based; settings: Homo sapiens, 72 h; for inhibition at 16 µg/mL: 16 μg/mL compound, read-out: IR (cell proliferation inhibition rate)
Procedure, shortened: (§1)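 Growth inhibition by MTT: 4000 cells/well seeded, 24 h pre-culture, then 72 h compound treatment across a concentration range at 37° C, 5% CO2, in DMEM high glucose with 10% FBS.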

CaES-17 cell line = assay: solid tumor cell growth inhibition, MTT; type: cell-based; settings: Homo sapiens, CaEs17; for inhibition at 16 µg/mL: CaES-17, 16 μg/mL compound, 72 h, read-out: IR (cell proliferation inhibition rate); for IC50: CaES-17, 72 h
Procedure, shortened: as §1

MGC 803 cell line = assay: solid tumor cell growth inhibition, MTT; type: cell-based; settings: Homo sapiens; for inhibition at 16 µg/mL: MGC 803, 16 μg/mL compound, 72 h, read-out: IR (cell proliferation inhibition rate); for IC50: MGC 803, 72 h
Procedure, shortened: as §1

A549 cell line = assay: solid tumor cell growth inhibition, MTT; type: cell-based; settings: Homo sapiens; for IC50: A549, 72 h; for inhibition at 16 µg/mL: A549, 16 μg/mL compound, 72 h, read-out: IR (cell proliferation inhibition rate)
Procedure, shortened: as §1

Hep-2 cell line = assay: solid tumor cell growth inhibition, MTT; type: cell-based; settings: Homo sapiens; for IC50: HEp-2, 72 h; for inhibition at 16 µg/mL: Hep-2, 16 μg/mL compound, 72 h, read-out: IR (cell proliferation inhibition rate)
Procedure, shortened: as §1

RKO cell line = assay: solid tumor cell growth inhibition, MTT; type: cell-based; settings: Homo sapiens, 72 h; for inhibition at 16 µg/mL: 16 μg/mL compound, read-out: IR (cell proliferation inhibition rate)
Procedure, shortened: as §1

PANC-1 cell line = assay: solid tumor cell growth inhibition, MTT; type: cell-based; settings: Homo sapiens; for IC50: PANC-1, 72 h; for inhibition at 16 µg/mL: PANC-1, 16 μg/mL compound, 72 h, read-out: IR (cell proliferation inhibition rate)
Procedure, shortened: as §1

MG-63 cell line = assay: solid tumor cell growth inhibition, MTT; type: cell-based; settings: Homo sapiens; for IC50: MG-63, 72 h; for inhibition at 16 µg/mL: MG-63, 16 μg/mL compound, 72 h, read-out: IR (cell proliferation inhibition rate)
Procedure, shortened: as §1

SK-OV-3 cell line = assay: solid tumor cell growth inhibition, MTT; type: cell-based; settings: Homo sapiens; for IC50: SK-OV-3, 72 h; for inhibition at 16 µg/mL: SK-OV-3, 16 μg/mL compound, 72 h, read-out: IR (cell proliferation inhibition rate)
Procedure, shortened: as §1

U87 MG cell line = assay: solid tumor cell growth inhibition, MTT; type: cell-based; settings: Homo sapiens, U-87 MG, 72 h; for inhibition at 16 µg/mL: 16 μg/mL compound, read-out: IR (cell proliferation inhibition rate)
Procedure, shortened: as §1

Hela cell line = assay: solid tumor cell growth inhibition, MTT; type: cell-based; settings: Homo sapiens, 72 h; for IC50: HeLa; for inhibition at 16 µg/mL: Hela, 16 μg/mL compound, read-out: IR (cell proliferation inhibition rate)
Procedure, shortened: as §1

PC-3 cell line = assay: solid tumor cell growth inhibition, MTT; type: cell-based; settings: Homo sapiens; for IC50: PC-3, 72 h; for inhibition at 16 µg/mL: PC-3, 16 μg/mL compound, 72 h, read-out: IR (cell proliferation inhibition rate)
Procedure, shortened: as §1

Becap37 cell line = assay: solid tumor cell growth inhibition, MTT; type: cell-based; settings: Homo sapiens; for inhibition at 16 µg/mL: Becap37, 16 μg/mL compound, 72 h, read-out: IR (cell proliferation inhibition rate); for IC50: Becap37, 72 h
Procedure, shortened: as §1

RPMI8226 cell line = assay: multiple myeloma cell growth inhibition, MTT; type: cell-based; settings: Homo sapiens, RPMI-8226; for inhibition at 16 µg/mL: RPMI8226, 16 μg/mL compound, 72 h, read-out: IR (cell proliferation inhibition rate); for IC50: RPMI8226, 72 h
Procedure, shortened: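 Viability was measured by MTT after a 72 h compound exposure (37° C, 5% CO2) of RPMI8226 myeloma cells seeded at 6000 per well in 1640 medium with 10% fetal bovine serum. Growth inhibition was expressed relative to untreated cells, taken as 0%.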

Jurkat cell line = assay: leukemia cell growth inhibition, MTT; type: cell-based; settings: Homo sapiens, 72 h; for inhibition at 16 µg/mL: 16 μg/mL compound, read-out: IR (cell proliferation inhibition rate)
Procedure, shortened: (§2)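 Cells seeded at 6000/well, RPMI 1640 + 10% FBS; compound dilution series added; 72 h, 37° C, 5% CO2. Readout MTT; untreated control = 0% inhibition.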

NB4 cell line = assay: leukemia cell growth inhibition, MTT; type: cell-based; settings: Homo sapiens, NB-4; for inhibition at 16 µg/mL: NB4, 16 μg/mL compound, 72 h, read-out: IR (cell proliferation inhibition rate); for IC50: NB4, 72 h
Procedure, shortened: as §2

H9 cell line = assay: leukemia cell growth inhibition, MTT; type: cell-based; settings: Homo sapiens; for IC50: H9, 72 h; for inhibition at 16 µg/mL: H9, 16 μg/mL compound, 72 h, read-out: IR (cell proliferation inhibition rate)
Procedure, shortened: as §2

Kasumi-1 cell line = assay: leukemia cell growth inhibition, MTT; type: cell-based; settings: Homo sapiens; for inhibition at 16 µg/mL: Kasumi-1, 16 μg/mL compound, 72 h, read-out: IR (cell proliferation inhibition rate); for IC50: Kasumi-1, 72 h
Procedure, shortened: as §2

K562/adr cell line = assay: leukemia cell growth inhibition, MTT; type: cell-based; settings: Homo sapiens, 72 h; for IC50: K562/Adr; for inhibition at 16 µg/mL: K562/adr, 16 μg/mL compound, read-out: IR (cell proliferation inhibition rate)
Procedure, shortened: as §2

Hep G2 cell line = assay: solid tumor cell growth inhibition, MTT; type: cell-based, human; settings: Homo sapiens; for inhibition at 16 µg/mL: HepG2, 72 h, Hep G2, 16 μg/mL compound, 72 h, read-out: IR (cell proliferation inhibition rate); for IC50: HepG2, Hep G2, 72 h
Procedure, shortened: as §1

Row | IC50 (CNE cell line) [µg/mL] | IC50 (CaES-17 cell line) [µg/mL] | IC50 (MGC 803 cell line) [µg/mL] | IC50 (A549 cell line) [µg/mL] | IC50 (Hep-2 cell line) [µg/mL] | IC50 (RKO cell line) [µg/mL] | IC50 (PANC-1 cell line) [µg/mL] | IC50 (MG-63 cell line) [µg/mL] | IC50 (SK-OV-3 cell line) [µg/mL] | IC50 (U87 MG cell line) [µg/mL] | Compound | inhibition at 16 µg/mL (CNE cell line) [%] | inhibition at 16 µg/mL (CaES-17 cell line) [%] | inhibition at 16 µg/mL (MGC 803 cell line) [%] | inhibition at 16 µg/mL (A549 cell line) [%] | inhibition at 16 µg/mL (Hep-2 cell line) [%] | inhibition at 16 µg/mL (RKO cell line) [%] | inhibition at 16 µg/mL (PANC-1 cell line) [%] | inhibition at 16 µg/mL (MG-63 cell line) [%] | inhibition at 16 µg/mL (SK-OV-3 cell line) [%] | inhibition at 16 µg/mL (U87 MG cell line) [%] | further results
1 | 3.89 (≈ 6.52 µM) | 2.97 (≈ 4.98 µM) | 2.84 (≈ 4.76 µM) | 2.06 (≈ 3.45 µM) | 5.99 (≈ 10 µM) | 3.29 (≈ 5.51 µM) | 5.02 (≈ 8.41 µM) | 2.72 (≈ 4.56 µM) | 3.63 (≈ 6.08 µM) | 2.54 (≈ 4.26 µM) | COC(=O)[C@]12CCC(C)(C)CC1C1=CCC3[C@@]4(C)CC(C(=O)NCCCN(C)C)C(=O)C(C)(C)C4CC[C@@]3(C)[C@]1(C)CC2 (some centres unmarked) [BS-OA-042] | 99.5 | 98.1 | 99.2 | 96.9 | 95.2 | 100 | 99.4 | 98.2 | 97.9 | 98.6 | IC50 (Hela cell line): 3.47 µg/mL (≈ 5.81 µM); inhibition at 16 µg/mL (Hela cell line): 98.9%; IC50 (PC-3 cell line): 4.78 µg/mL (≈ 8.01 µM); inhibition at 16 µg/mL (PC-3 cell line): 100%; inhibition at 16 µg/mL (Becap37 cell line): 98.7%; IC50 (Becap37 cell line): 4.32 µg/mL (≈ 7.24 µM); inhibition at 16 µg/mL (RPMI8226 cell line): 98.9%; IC50 (RPMI8226 cell line): 0.68 µg/mL (≈ 1.14 µM); inhibition at 16 µg/mL (Jurkat cell line): 99%; IC50 (Jurkat cell line): 2.43 µg/mL (≈ 4.07 µM); inhibition at 16 µg/mL (NB4 cell line): 100%; IC50 (NB4 cell line): 2.63 µg/mL (≈ 4.41 µM); IC50 (H9 cell line): 3.12 µg/mL (≈ 5.23 µM); inhibition at 16 µg/mL (H9 cell line): 95.9%; inhibition at 16 µg/mL (Kasumi-1 cell line): 99.1%; IC50 (Kasumi-1 cell line): 4.1 µg/mL (≈ 6.87 µM); IC50 (K562/adr cell line): 0.64 µg/mL (≈ 1.07 µM); inhibition at 16 µg/mL (K562/adr cell line): 98.4%; inhibition at 16 µg/mL (Hep G2 cell line): > 96%; IC50 (Hep G2 cell line): 2.36 µg/mL (≈ 3.95 µM)
2 | > 16 | > 16 | > 16 | > 16 | > 16 | > 16 | > 16 | > 16 | > 16 | > 16 | COC(=O)[C@]12CCC(C)(C)C[C@H]1C1=CC[C@@H]3[C@@]4(C)CC(C(=O)NCC5CC5)C(=O)C(C)(C)[C@@H]4CC[C@@]3(C)[C@]1(C)CC2 (some centres unmarked) [BS-OA-048] | 21.9 | -18.6 | -5.9 | -3.8 | -5.3 | -33.4 | -17.8 | -20.3 | 22 | 5.6 | IC50 (Hela cell line): > 16 µg/mL; inhibition at 16 µg/mL (Hela cell line): 2.4%; IC50 (PC-3 cell line): > 16 µg/mL; inhibition at 16 µg/mL (PC-3 cell line): 17.7%; inhibition at 16 µg/mL (Becap37 cell line): -8.4%; IC50 (Becap37 cell line): > 16 µg/mL; inhibition at 16 µg/mL (RPMI8226 cell line): 4.9%; IC50 (RPMI8226 cell line): > 16 µg/mL; inhibition at 16 µg/mL (Jurkat cell line): -21.2%; IC50 (Jurkat cell line): > 16 µg/mL; inhibition at 16 µg/mL (NB4 cell line): 11%; IC50 (NB4 cell line): > 16 µg/mL; IC50 (H9 cell line): > 16 µg/mL; inhibition at 16 µg/mL (H9 cell line): 28.9%; inhibition at 16 µg/mL (Kasumi-1 cell line): 0.2%; IC50 (Kasumi-1 cell line): > 16 µg/mL; IC50 (K562/adr cell line): > 16 µg/mL; inhibition at 16 µg/mL (K562/adr cell line): 21.4%; inhibition at 16 µg/mL (Hep G2 cell line): 7.4%; IC50 (Hep G2 cell line): > 16 µg/mL
